Experimental data: patent US20070224167A1, “Novel HCV inhibitor combinations and methods” (priority 2006, published 2007)

Columns and labels:
[1] = tested on: Huh7-BB7 cells; test: Selection of replicon variants with reduced susceptibility, Study B; type: cell-based, HCV genotype 1b; conditions: prolonged treatment
Procedure: Huh7-BB7 cells are plated at a density of 2-3×10^5 cells per T25 flask and cultured in DMEM medium with 2% FCS in the absence of G418. The cells are treated with DMSO as a control, or HCV-796 alone at 40 and 80 nM, or SCH 503034 alone at 200, 400, 600 and 800 nM, or a combination of HCV-796 and SCH 503034 at 40/400, 80/400, 40/800 and 80/800 nM, respectively, for HCV-796 and SCH 503034. The DMSO concentration in both drug-treated and control cells is 0.5% (v/v). Tissue culture plates are incubated in a 37° C. incubator containing 5% CO2. When cells reach about 80% confluence (about 2-3 days), cells are passaged in a 1:3 dilution and the old medium is replaced with fresh medium containing the compounds at the respective concentrations. Cell pellets containing […] are collected during each passage, and monitored for HCV RNA using quantitative Taqman RT-PCR as described above. […]
Drug susceptibility of the replicon variants is evaluated as previously described in the section “Intracellular antiviral activities in HCV Replicon”. […] The plate is incubated for 72 hours at 37° C. and 5% CO2 before quantification of HCV and GAPDH RNAs. The amounts of HCV, rRNA and GAPDH RNAs are quantified using the TaqMan RT-PCR assay as described above (see Quantification of HCV and 18S Ribosomal RNAs).

[2] = tested on: HCV 1b BB7 replicon; test: Intracellular antiviral activity in HCV replicon, genotype 1b; type: cell-based, HCV genotype 1b; conditions: for EC50: Hepatitis C virus, 72 h, read-out: HCV RNA EC50
Procedure: HCV genotype 1b, BB7 replicon-containing cell line is derived from a human hepatoma cell line (Huh7). A genotype 1a (H77 isolate; GenBank Accession #AF009606) is derived from replicon-containing cell line (Huh7-1a). The cell lines are cultured at 37° C. and 5% CO2 in Dulbecco's Modified Eagle Media (D-MEM; Invitrogen #11965-084) containing 10% fetal bovine serum (FBS; HyClone #SH300070) supplemented with 1% penicillin/streptomycin (Invitrogen #15140-122), 1% non-essential amino acids (Invitrogen #11140-050), 0.66 mM HEPES buffer, pH 7.55 (Invitrogen #15630-080), and 1 mg/mL G418 (Geneticin®, Invitrogen #11811-031 or #10131-027). Genotype 1a and genotype 1b replicon-containing cell lines contain approximately 1000 and 2000 RNA genome equivalents per cell, respectively, when maintained in a subconfluent monolayer in the presence of 1 mg/mL G418. For compound testing, G418 is eliminated and the FBS concentration is reduced to 2%.
At the end of the incubation period, the replicon-containing cells are lysed in 150 μL of lysis buffer provided in the RNeasy 96 Kit (Qiagen #74181). Total cellular RNA is extracted according to the manufacturer's protocol and eluted in 150 μL of nuclease-free water. […] For duplexed RT-PCR quantifying both HCV RNA and 18S rRNA, 0.08 μM rRNA forward primer, 0.1 μM rRNA reverse primer, and 0.2 μM rRNA probe are added (ABI #4308329). […]
The amounts of the HCV and 18S ribosomal RNAs in each sample are estimated by comparing the Ct cycles with those in the corresponding standard curves. […] The total RNA that is used for preparing the standard curve of the rRNA is quantified by O.D.260 measurement. Compound dose response is measured in a 10-point, 3-fold serial dilution series performed in triplicates and subjected to the same corresponding RT-PCR conditions as described above. […] The amounts of HCV are expressed as HCV RNA copies and μg total RNA using rRNA as the surrogate marker for the quantification. […]

SMILES | Selection of resistant replicon variants ([1]; up to 80 nM HCV-796 alone) | EC50 [2] [nM] | Selection of resistant replicon variants ([1]; 800 nM SCH 503034 alone) | Difference in EC50, changing media daily vs. single dose in 3 days ([2]; replicon, 3 days)
CNC(=O)c1c(-c2ccc(F)cc2)oc2cc(N(CCO)S(C)(=O)=O)c(C3CC3)cc12 [HCV-796, 5-cyclopropyl-2-(4-fluoro-phenyl)-6-[(2-hydroxy-ethyl)-methanesulfonyl-amino]-benzofuran-3-carboxylic acid methylamide] | selection of replicon variants that have reduced susceptibility | 1.1 ± 0.2 | – | –
CC(C)(C)NC(=O)N[C@H](C(=O)N1C[C@H]2[C@@H]([C@H]1C(=O)NC(CC1CCC1)C(=O)C(N)=O)C2(C)C)C(C)(C)C (stereo partly drawn) [SCH 503034, (1R,5S)—N-[3-amino-1-(cyclobutylmethyl)-2,3-dioxopropyl]-3-[2(S)-[[[(1,1-dimethylethyl)amino]carbonyl]amino]-3,3-dimethyl-1-oxobutyl]-6,6-dimethyl-3-azabicyclo[3.1.0]hexan-2(S)-carboxamide] | – | 268 ± 29 | selection of replicon variants that have reduced susceptibility | No difference in EC50
